Structures can show the parent of a compound that is named as a salt.

Chain of Sphingosine 1-phosphate receptor 1 (P21453 whole entry): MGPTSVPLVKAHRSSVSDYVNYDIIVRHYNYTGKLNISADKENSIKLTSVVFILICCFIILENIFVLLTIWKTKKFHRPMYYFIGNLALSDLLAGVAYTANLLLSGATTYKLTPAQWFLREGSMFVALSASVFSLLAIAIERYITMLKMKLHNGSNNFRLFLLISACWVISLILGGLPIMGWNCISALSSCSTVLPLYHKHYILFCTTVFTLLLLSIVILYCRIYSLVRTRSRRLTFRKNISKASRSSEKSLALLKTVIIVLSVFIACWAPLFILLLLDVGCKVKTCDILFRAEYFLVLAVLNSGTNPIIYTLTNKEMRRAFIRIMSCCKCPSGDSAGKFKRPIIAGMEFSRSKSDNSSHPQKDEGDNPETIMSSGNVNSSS

One assay concerns the target Sphingosine 1-phosphate receptor 1 (Homo sapiens, UniProt P21453). The assay is described as follows: potentiators of S1P1 agonist response, dose response, cell-based, potentiator mode, 60K MLSMR set (AID 466).
Conditions: not given
Take `Fc1ccc2[nH]c3c(N4CCN(c5ccccc5)CC4)ncnc3c2c1`: the EC50 worked out at 9.52 µM. Turning to `COC(=O)c1ccc2c(=O)n(C3CCCCC3)c(SCC#N)nc2c1` [2-(cyanomethylthio)-3-cyclohexyl-4-keto-quinazoline-7-carboxylic acid methyl ester], the 50% effective concentration (EC50) amounted to 6.9 µM. Still for that read-out and setting: the figure for `CCCc1ccc(OCc2nc(-c3ccc(NC(=O)c4ccco4)cc3)no2)cc1` [MLS000097352] is 4.08 µM; for `COC(=O)c1cc(CSc2nnc(-c3ccccc3)c(-c3ccccc3)n2)oc1C` [5-[[(5,6-diphenyl-1,2,4-triazin-3-yl)thio]methyl]-2-methyl-3-furancarboxylic acid methyl ester] it is 1.05 µM; for `O=C(Nc1c(F)cc(F)cc1Br)c1cc(-c2ccc(O)cc2)on1` [MLS000116264] it is 2.14 µM. Same read-out and setting: for `CC(C)(C)OC(=O)N[C@@H](Cc1ccccc1)c1nnc(S(=O)(=O)Cc2ccccc2)o1` [SMR000047857] the value was 5.33 µM. Still for that read-out and setting: for `CC1=NC(=O)NC(c2ccc(F)cc2)C1C(=O)OCc1ccc2c(c1)OCO2` (stereo not drawn) [1,3-benzodioxol-5-ylmethyl 4-(4-fluorophenyl)-6-methyl-2-oxidanylidene-3,4-dihydro-1H-pyrimidine-5-carboxylate] the value was 0.631 µM; for `COc1ccc(-c2nc(-c3cccc(C)c3)no2)cc1OC` [5-(3,4-dimethoxyphenyl)-3-(3-methylphenyl)-1,2,4-oxadiazole], 1.07 µM; for `Cc1cc2nc(-c3ccc(NC(=O)C(C)C)cc3)oc2cc1C` [MLS000109473], 2.77 µM. Regarding `CCC(NCc1ccc2c(c1)OCO2)=C1C(=O)NC(=O)N(C2CCCCC2)C1=O` [(5E)-5-[1-(1,3-benzodioxol-5-ylmethylamino)propylidene]-1-cyclohexyl-1,3-diazinane-2,4,6-trione], the EC50 came to 8.66 µM. On the same count and under the same terms, for `NC(=Nc1nc2c(c(=O)[nH]1)CCCC2)Nc1ccccc1` [MLS000078734] the value was 5.87 µM; for `Cc1ccc(-n2c(C)cc(C(=O)CSc3nnnn3C)c2C)cc1` [1-[2,5-dimethyl-1-(4-methylphenyl)-3-pyrrolyl]-2-[(1-methyl-5-tetrazolyl)thio]ethanone], 6.1 µM; for `CCOc1ccc(-c2nc(-c3ccc(OC)cc3)no2)cc1OCC` [5-(3,4-Diethoxy-phenyl)-3-(4-methoxy-phenyl)-[1,2,4]oxadiazole], 0.732 µM. Take `COc1ccc(-c2nc(-c3ccncc3)no2)cc1OC` [5-(3,4-dimethoxyphenyl)-3-(4-pyridyl)-1,2,4-oxadiazole]: the EC50 was found to be 1.2 µM. `Cc1nnc(SC(=O)N2c3ccccc3Sc3ccccc32)s1` [10-phenothiazinecarbothioic acid S-(5-methyl-1,3,4-thiadiazol-2-yl) ester]: the EC50 worked out at 3.63 µM.

With `Cc1nn(Cc2ccc(Cl)c(Cl)c2)c(C)c1NC(=O)c1cc(CC(C)C)on1` [MLS000116412], the EC50 was 9.37 µM. As for `O=S1(=O)Nc2c(ccc3cccnc23)-c2ccccc21` [5H-quinolino[8,7-c][1,2]benzothiazine 6,6-dioxide], the EC50 stood at 3.22 µM. The same measure, in the same setting: the figure for `Cc1nc(NC(C)c2ccccc2)c2oc3ccccc3c2n1` (stereo not drawn) [(2-methylbenzofuro[3,2-d]pyrimidin-4-yl)-(1-phenylethyl)amine] is 9.78 µM; for `CCCc1cc(C(=O)Nc2sc(C)c(CC)c2C#N)no1` [MLS000116385] it is 3.08 µM; for `Cn1c(SCC(=O)Nc2ccc(N3CCOCC3)c(Cl)c2)nnc1-c1ccccc1` [MLS000089171] it is 2.06 µM.

Turning to `CN(C)CC(C(=O)c1ccccc1)c1ccccc1` (stereo not drawn) [3-(dimethylamino)-1,2-diphenyl-1-propanone;hydrochloride], the EC50 worked out at 12 µM. Same read-out and setting: the figure for `Cc1cc(C(=O)CSc2nnc(-c3ccco3)o2)c(C)n1-c1ccc2c(c1)OCCO2` [1-[1-(2,3-dihydro-1,4-benzodioxin-6-yl)-2,5-dimethyl-3-pyrrolyl]-2-[[5-(2-furanyl)-1,3,4-oxadiazol-2-yl]thio]ethanone] is 9.32 µM; for `COC(=O)c1ccc(C(c2c(N)n(CC(C)C)c(=O)[nH]c2=O)N2CCN(c3ccccc3)CC2)cc1` (stereo not drawn) [4-[[6-amino-1-(2-methylpropyl)-2,4-dioxo-5-pyrimidinyl]-(4-phenyl-1-piperazinyl)methyl]benzoic acid methyl ester] it is over 95 µM; for `CCOc1ccc(-c2noc(-c3ccncc3)n2)cc1OCC` [3-(3,4-diethoxyphenyl)-5-(4-pyridyl)-1,2,4-oxadiazole] it is 0.428 µM. The same measure, in the same setting: the figure for `CCCc1ccc(Oc2c[nH]nc2-c2ccc(O)cc2O)cc1` [(4E)-3-hydroxy-4-[4-(4-propylphenoxy)-1,2-dihydropyrazol-3-ylidene]-1-cyclohexa-2,5-dienone] is 18.2 µM; for `O=C(c1ccc(F)cc1)C(CN1CCOCC1)c1ccccc1` (stereo not drawn) [1-(4-fluorophenyl)-3-(4-morpholinyl)-2-phenyl-1-propanone;hydrochloride] it is 23.5 µM. Same read-out and setting: the figure for `Cc1cc(C(=O)CSc2nnnn2-c2ccc(O)cc2)c(C)n1Cc1ccc2c(c1)OCO2` [1-(2,5-dimethyl-1-piperonyl-pyrrol-3-yl)-2-[[1-(4-hydroxyphenyl)tetrazol-5-yl]thio]ethanone] is 6.14 µM; for `COc1ccc(C(=O)C(CN2CCOCC2)c2ccccc2)cc1F` (stereo not drawn) [1-(3-Fluoro-4-methoxy-phenyl)-3-morpholin-4-yl-2-phenyl-propan-1-one] it is 31.1 µM; for `O=S1(=O)C=C(Sc2nc3ccccc3s2)c2ccccc21` [2-[(1,1-dioxido-1-benzothien-3-yl)thio]-1,3-benzothiazole] it is over 10 µM.

For the compound `Cc1nnc2ccc(Oc3ccc(-c4ccccc4)cc3)nn12` [3-methyl-6-(4-phenylphenoxy)-[1,2,4]triazolo[4,3-b]pyridazine], the EC50 was found to be 5.31 µM. The same measure, in the same setting: for `CCOC(=O)CN(C(=O)CSc1nnc(-c2cccc(OC)c2)o1)c1ccc(F)cc1` [((4-Fluoro-phenyl)-{2-[5-(3-methoxy-phenyl)-[1,3,4]oxadiazol-2-ylsulfanyl]-acetyl}-amino)-acetic acid ethyl ester] the value was 2.11 µM. `COc1ccc(NC(=O)c2cnn3c(C(F)(F)F)cc(-c4ccco4)nc23)cc1OC` [MLS000109325]: the EC50 was over 95 µM. On the same count and under the same terms, for `COc1cc(C#CC#CCN2CCCCC2)ccc1O` [2-methoxy-4-(5-piperidin-1-ylpenta-1,3-diynyl)phenol;hydrochloride] the value was 7.1 µM; for `Cc1cc(C=Nn2cnnc2)c(C)n1-c1ccc(OCc2ccccc2F)cc1` [MLS000112180], 0.803 µM; for `Cc1ccc(-c2csc3ncnc(Sc4nnc(CN5CCCCCC5=O)o4)c23)cc1` [1-[[5-[5-(4-methylphenyl)thieno[2,3-d]pyrimidin-4-yl]sulfanyl-1,3,4-oxadiazol-2-yl]methyl]azepan-2-one], 2.6 µM.

With `CC(C)N1C(=O)CCC1C(=O)N1CCC(Cc2ccccc2)CC1` (stereo not drawn) [5-(4-benzylpiperidine-1-carbonyl)-1-isopropyl-2-pyrrolidone], the EC50 is over 95 µM.

Still in this assay, the particulars now being: inactive by the depositor's call.
As for `COc1ccc(-c2nc(-c3cccc(C(F)(F)F)c3)no2)cc1OC` [5-(3,4-dimethoxyphenyl)-3-[3-(trifluoromethyl)phenyl]-1,2,4-oxadiazole], the EC50 amounted to 18.8 µM. The same measure, in the same setting: for `CC(C)[C@H](NC(=O)OC(C)(C)C)c1nnc(SCC(=O)Nc2ccc(Br)cc2)o1` [MLS000040800] the value was 16.2 µM; for `CCCc1cc2c(=O)c(-c3ccccn3)coc2cc1OC` [7-methoxy-6-propyl-3-(2-pyridinyl)-1-benzopyran-4-one], 37.1 µM; for `CC(=O)N1C=CN(C(C)=O)C(c2cn(C)c3ccccc23)C1c1cn(C)c2ccccc12` (stereo not drawn) [1-[4-acetyl-2,3-bis(1-methyl-3-indolyl)-2,3-dihydropyrazin-1-yl]ethanone], 20.9 µM. Turning to `Nc1c(C(=O)NC2CCCC2)sc2nc(-c3cccs3)ccc12` [3-Amino-6-thiophen-2-yl-thieno[2,3-b]pyridine-2-carboxylic acid cyclopentylamide], the EC50 was found to be 13.6 µM.

In the case of `CCOc1nc(-c2ccccc2)ccc1-c1noc(-c2ccco2)n1` [2-Ethoxy-3-(5-furan-2-yl-[1,2,4]oxadiazol-3-yl)-6-phenyl-pyridine], the EC50 came out at 14.8 µM. As for `CCc1ccc2c(COC(=O)c3n[nH]c4ccccc34)cc(=O)oc2c1` [(7-ethyl-2-oxochromen-4-yl)methyl 1H-indazole-3-carboxylate], the EC50 is 10.4 µM. `Cc1ccc(S(=O)(=O)Nc2ccc3ncccc3c2)cc1` [4-methyl-N-(6-quinolinyl)benzenesulfonamide]: the EC50 amounted to 10.7 µM. Still for that read-out and setting: for `Cc1cc(C)n(-c2nc3ccccc3c(=O)n2OCCOc2ccccc2)n1` [2-(3,5-dimethyl-1-pyrazolyl)-3-(2-phenoxyethoxy)-4-quinazolinone] the value was 15 µM. With `Cc1cccc(N2CCN(C(=O)C3CCCN(S(=O)(=O)c4cccc5cccnc45)C3)CC2)c1C` (stereo not drawn) [MLS000120299], the EC50 stood at 16.1 µM. Turning to `Cc1cccc(OCCCCc2c(C)n[nH]c2C)c1` [SMR000103102], the EC50 worked out at 10.6 µM. Consider `Cc1cc(N2CCN(C(c3ccccc3)c3ccccc3)CC2)n2ncnc2n1` [7-(4-benzhydrylpiperazin-1-yl)-5-methyl-[1,2,4]triazolo[1,5-a]pyrimidine], for which the EC50 came to 13.6 µM. With `Clc1ccc(CCNc2[nH]cnc3ncnc2-3)cc1` [SMR000017624], the EC50 was determined as 10.6 µM. Still for that read-out and setting: for `Cc1ccc(N2C(=O)c3cccc4c(N5CCN(C)CC5)ccc(c34)C2=O)c2cccnc12` [6-(4-methyl-1-piperazinyl)-2-(8-methyl-5-quinolinyl)-1H-benzo[de]isoquinoline-1,3(2H)-dione] the value was 33.2 µM.

For the compound `Oc1c(C(c2ccco2)N2CCN(C(c3ccccc3)c3ccccc3)CC2)sc2ncnn12` (stereo not drawn) [5-[(4-benzhydrylpiperazin-1-yl)-(furan-2-yl)methyl]-[1,3]thiazolo[3,2-b][1,2,4]triazol-6-ol], the EC50 amounted to 20.1 µM. For `CC(=O)c1ccc(N2CCN(c3ccc(C(F)(F)F)cn3)CC2)cc1` [1-[4-[4-[5-(trifluoromethyl)-2-pyridinyl]-1-piperazinyl]phenyl]ethanone], the EC50 turned out to be 37 µM. Same read-out and setting: for `O=C(Nc1ccc(Oc2ccccc2)cc1)c1cnc2n(c1=O)CCS2` [5-keto-N-(4-phenoxyphenyl)-2,3-dihydrothiazolo[3,2-a]pyrimidine-6-carboxamide] the value was 19.9 µM.

As a reminder, the EC50 is the concentration at which the effect is half-maximal.

(Values after BindingDB's records for doi:10.7270/Q2ZC817P (The Scripps Research Institute Molecular Screening Center, 2007).)
